Data as given in US20220002272A1, “BISARYL LACTAMS AS NRF2 ACTIVATORS” (GLAXOSMITHKLINE INTELLECTUAL PROPERTY DEVELOPMENT LIMITED, priority 2016, published 2022).
Counter-ions that a name gives are not always drawn.

Test system: NQ01 specific enzyme activity in BEAS-2B cells (marker for Nrf2 activation)
Test: BEAS-2B NQ01 MTT Assay
Assay type: cell-based
Details: Homo sapiens; NQ01 specific activity induction in BEAS-2B cells, 48 hours incubation with compound
Source text: NAD(P)H:quinone oxidoreductase 1 (NQ01), also called DT diaphorase, is a homodimeric FAD-containing enzyme that catalyzes obligatory NAD(P)H-dependent two-electron reductions of quinones and protects cells against the toxic and neoplastic effects of free radicals and reactive oxygen species arising from one-electron reductions. The transcription of NQ01 is finely regulated by Nrf2, and thus NQ01 activity is a good marker for Nrf2 activation. On day one, frozen BEAS-2B cells (ATCC) are thawed in a water bath, counted, and re-suspended at a concentration of 250,000 cells/mL. Fifty microliters of cells are plated in 384 well black clear-bottomed plates. Plates are incubated at 37° C., 5% CO2 overnight. On day two, plates are centrifuged and 50 nL of compound or controls are added to the cells. Plates are then incubated at 37° C., 5% CO2 for 48 hours. On day four, medium is aspirated from the plate and crude cell lysates are made by adding 13 uL of 1× Cell Signaling Technologies lysis buffer with 1 Complete, Mini, EDTA-free Protease Inhibitor Tablet (Roche) for each 10 mL of lysis buffer. After lysis plates are incubated for 20 minutes at room temperature. Two microliters of lysate are removed for use in Cell Titer Glo assay (Promega) and MTT cocktail is prepared (Prochaska et. al. 1998) for measurement of NQ01 activity. Fifty microliters of MTT cocktail is added to each well, plate is centrifuged, and analyzed on an Envision plate reader (Perkin Elmer) using Absorbance 570 nm label for 30 minutes. Product formation is measured kinetically and the pEC50 of NQ01 specific activity induction is calculated by plotting the change in absorbance (Delta OD/min) versus the log of compound concentration followed by 3-parameter fitting.
pEC50 is the negative log of the EC50.
EC50s<1 nM (+++++), EC50s 10 nM-1 nM (++++), EC50s 10-100 nM (+++), EC50s 100 nM-1 μM (++), EC50s 1-10 μM (+).

Structure (SMILES)	EC50 [nM]
Cc1ccc([C@@H](c2ccc3c(nnn3C)c2C)C(C)(C)C(=O)O)cc1CN1CC(=O)N(C)CC(C)(C)C1 [Example 6, (S)-3-(1,4-Dimethyl-1H-benzo[d][1,2,3]triazol-5-yl)-2,2-dimethyl-3-(4-methyl-3-((4,6,6-trimethyl-3-oxo-1,4-diazepan-1-yl)methyl)phenyl)propanoic acid, 0.3Formic acid salt]	1 to 10
Cc1c([C@H](c2ccc3c(c2)[C@H](N2CC(=O)N(C)CC(C)(C)C2)CC3)C(C)(C)C(=O)O)ccc2c1nnn2C (relative stereo) [Example 10, rel-3S-(1,4-Dimethyl-1H-benzo[d][1,2,3]triazol-5-yl)-2,2-dimethyl-3-(rel-(R)-3-(4,6,6-trimethyl-3-oxo-1,4-diazepan-1-yl)-2,3-dihydro-1H-inden-5-yl)propanoic acid]	< 1
Cc1ccc([C@@H](c2ccc3c(nnn3C)c2C)C(C)(C)C(=O)O)cc1CN1CC(=O)N(C2CC2)CC(C)(C)C1 [Example 1]	1 to 10
CCn1cc(COC(c2ccc(C)c(CN3CC(=O)N(C)CC(C)(C)C3)c2)C(C)(C)C(=O)O)nn1 (stereo not shown) [Example 14, 3-((1-Ethyl-1H-1,2,3-triazol-4-yl)methoxy)-2,2-dimethyl-3-(4-methyl-3-((4,6,6-trimethyl-3-oxo-1,4-diazepan-1-yl)methyl)phenyl)propanoic acid]	100 to 1000
Cc1c([C@H](c2ccc3c(c2)[C@@H](N2CC(=O)N(C)CC(C)(C)C2)CC3)C(C)(C)C(=O)O)ccc2c1nnn2C (relative stereo) [Example 11, rel-3S-(1,4-Dimethyl-1H-benzo[d][1,2,3]triazol-5-yl)-2,2-dimethyl-3-(rel-(S)-3-(4,6,6-trimethyl-3-oxo-1,4-diazepan-1-yl)-2,3-dihydro-1H-inden-5-yl)propanoic acid]	1 to 10
Cc1ccc(C(c2ccc3c(nnn3C)c2C)C(C)(C)C(=O)O)cc1CN1CC(=O)N(CC2CC2)CC(C)(C)C1 (stereo not shown) [Example 9, 3-(3-((4-(Cyclopropylmethyl)-6,6-dimethyl-3-oxo-1,4-diazepan-1-yl)methyl)-4-methylphenyl)-3-(1,4-dimethyl-1H-benzo[d][1,2,3]triazol-5-yl)-2,2-dimethylpropanoic acid]	10 to 100
Cc1c(C(c2ccc3c(c2)C(N2CC(=O)N(C)CC(C)(C)C2)CC3)C(C)(C)C(=O)O)ccc2c1nnn2C (single isomer, unassigned) [Example 12]	10 to 100
Cc1ccc(C(c2ccc3c(nnn3C)c2C)C(C)(C)C(=O)O)cc1CN1CC(=O)N(C2CCC2)CC(C)(C)C1 (stereo not shown) [Example 8, 3-(3-((4-Cyclobutyl-6,6-dimethyl-3-oxo-1,4-diazepan-1-yl)methyl)-4-methylphenyl)-3-(1,4-dimethyl-1H-benzo[d][1,2,3]triazol-5-yl)-2,2-dimethylpropanoic acid]	1 to 10
CCC1CN(Cc2cc(C(c3ccc4c(nnn4C)c3C)C(C)(C)C(=O)O)ccc2C)CC(=O)N(C)C1 (stereo not shown) [Example 5, 3-(1,4-Dimethyl-1H-benzo[d][1,2,3]triazol-5-yl)-3-(3-((6-ethyl-4-methyl-3-oxo-1,4-diazepan-1-yl)methyl)-4-methylphenyl)-2,2-dimethylpropanoic acid]	1 to 10
CCCN1CC(C)(C)CN(Cc2cc([C@@H](c3ccc4c(nnn4C)c3C)C(C)(C)C(=O)O)ccc2C)CC1=O [Example 2]	1 to 10
Cc1c(C(c2ccc3c(c2)C(N2CC(=O)N(C)CC(C)(C)C2)CC3)C(C)(C)C(=O)O)ccc2c1nnn2C (stereo not shown) [Example 13, 3-(1,4-Dimethyl-1H-benzo[d][1,2,3]triazol-5-yl)-2,2-dimethyl-3-(3-(4,6,6-trimethyl-3-oxo-1,4-diazepan-1-yl)-2,3-dihydro-1H-inden-5-yl)propanoic acid]	100 to 1000
CCn1cc(CCC(c2ccc(Cl)c(CN3CC(=O)N(C)CC(C)(C)C3)c2)C(C)(C)C(=O)O)nn1 (stereo not shown) [Example 16, 3-(4-Chloro-3-((4,6,6-trimethyl-3-oxo-1,4-diazepan-1-yl)methyl)phenyl)-5-(1-ethyl-1H-1,2,3-triazol-4-yl)-2,2-dimethylpentanoic acid]	< 1
Cc1ccc(C(c2ccc3c(nnn3C)c2C)C(C)(C)C(=O)O)cc1CN1CC(=O)N(C)CC(C)(C)C1 (stereo not shown) [Example 7, 3-(1,4-Dimethyl-1H-benzo[d][1,2,3]triazol-5-yl)-2,2-dimethyl-3-(4-methyl-3-((4,6,6-trimethyl-3-oxo-1,4-diazepan-1-yl)methyl)phenyl)propanoic acid]	1 to 10
CCCN1CC(C)(C)CN(Cc2cc(C(CCc3cn(CC)nn3)C(C)(C)C(=O)O)ccc2Cl)CC1=O (stereo not shown) [Example 15, 3-(4-Chloro-3-((6,6-dimethyl-3-oxo-4-propyl-1,4-diazepan-1-yl)methyl)phenyl)-5-(1-ethyl-1H-1,2,3-triazol-4-yl)-2,2-dimethylpentanoic acid]	10 to 100
CCN1CC(C)(C)CN(Cc2cc([C@@H](c3ccc4c(nnn4C)c3C)C(C)(C)C(=O)O)ccc2C)CC1=O [Example 4]	1 to 10
Cc1ccc([C@@H](c2ccc3c(nnn3C)c2C)C(C)(C)C(=O)O)cc1CN1CCCN(C)C(=O)C1 [Example 3, (S)-3-(1,4-Dimethyl-1H-benzo[d][1,2,3]triazol-5-yl)-2,2-dimethyl-3-(4-methyl-3-((4-methyl-3-oxo-1,4-diazepan-1-yl)methyl)phenyl)propanoic acid]	100 to 1000
